Literature values in patent US9107921B2, “Oral dosage forms for oxygen containing active agents and oxyl-containing polymers” (Spriaso LLC, priority 2012, dated 2015).
Where a name gives a salt, the structure may show the parent alone.

Tests used:
[1] = for plasma half-life: in vivo

**Q.** With COc1ccc2c3c1O[C@H]1C(=O)CC[C@H]4[C@@H](C2)N(C)CC[C@]314 [Hydrocodone] as the compound, how does the plasma half-life [1] read?
**A.** Its plasma half-life is 3.8 to 6 h.

**Q.** Which results are given for CN(C)CCC(c1ccc(Cl)cc1)c1ccccn1 (centres unmarked) [chlorpheniramine, Chlorpheniramine]?
**A.** time to 50% in vitro drug release (single-layer matrix tablet, HPMC polymer (Methocel K4M) to active ratio of about 1:1): about 3.5 hours; time to peak plasma concentration ([1]; following oral administration): 2 to 3 h

**Q.** For COc1ccc2c3c1O[C@H]1[C@@H](O)C=C[C@H]4[C@@H](C2)N(C)CC[C@@]341 [codeine, 3-methylmorphine], which plasma half-life [1] is on record?
**A.** Its plasma half-life is 2.5 to 3 h.

**Q.** For CC(C)NCC(O)COc1cccc2ccccc12 (centres unmarked) [propranolol HCl], which “time to 50% drug release in vitro” value (matrix tablet, HPMC (Methocel K4M) to active agent ratio 1:0.3 by weight) is on record?
**A.** Its value is “about 4 hours”.
